Structures are written as SMILES. “And” between values parts separate entries of the source, which are not always exact repeats. Equal entries are not always repeated.

What is called IC50 is the concentration at which inhibition is half-maximal. Usually viability, T/C stands for the ratio of treated to control.

The subject of this test is 817829-284-R-J1-PDC multi-cell spheroid viability. Nature of the test: Anticancer human tumor 817829-284-R-J1-PDC patient-derived colon adenocarcinoma cell line growth inhibition [PI3K]. To be noted: for viability, T/C: stronger effect = lower value. The procedure, abridged:
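Targeted small molecules plus PI3K inhibitors, half-log dose series from Cmax (default top 10 microM), were applied to heterotypic spheroids of cancer cells with HUVEC and MSCs. Viability indicated growth inhibition.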

The mark [1] stands for this setting: curve of first compound, second compound 0.0316 µM.
[2] abbreviates: curve of first compound, second compound 0.1 µM.
Where [3] appears, read: curve of first compound, second compound 0.316 µM.
[4] abbreviates: curve of first compound, second compound 1 µM.
[5] abbreviates: second compound 0.0316 µM, first compound 0.0316 µM.
Setting [6] is: second compound 0.0316 µM, first compound 0.1 µM.
Where [7] appears, read: second compound 0.1 µM, first compound 0.0316 µM.
Setting [8] is: second compound 0.1 µM, first compound 0.1 µM.
Where [9] appears, read: second compound 0.316 µM, first compound 0.0316 µM.
[10] abbreviates: second compound 0.316 µM, first compound 0.1 µM.
The mark [11] stands for this setting: second compound 1 µM, first compound 0.0316 µM.
The mark [12] stands for this setting: second compound 1 µM, first compound 0.1 µM.
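Note: spheroids exposed to agents for seven days before readout.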
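Throughout, for viability, T/C: percent of vehicle DMSO control viability which is 100%.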

As to `CC(Cn1ccc(-c2ccc(C#N)c(Cl)c2)n1)NC(=O)c1cc(C(C)O)[nH]n1` (stereo unspecified) + Cc1nc(NC(=O)N2CCCC2C(N)=O)sc1-c1ccnc(C(C)(C)C(F)(F)F)c1, the IC50 runs as follows: under setting [1], > 10000 nM; under setting [2], < 31.6 nM; under setting [3], > 10000 nM; under setting [4], 2620 nM; (curve of first compound, second compound 3.16 µM) > 10000 nM; (curve of first compound, second compound 10 µM) < 31.6 nM. Also, the viability, T/C reads like this: under setting [5], 72.1%; under setting [6], 92.1%; (second compound 0.0316 µM, first compound 0.316 µM) 118%; (second compound 0.0316 µM, first compound 1 µM) 82.5%; (second compound 0.0316 µM, first compound 3.16 µM) 64.8%; (second compound 0.0316 µM, first compound 10 µM) 67.4%. In addition, the viability, T/C is 42.2% under setting [7]; 81.5% under setting [8]; 96.1% (second compound 0.1 µM, first compound 0.316 µM); 103% (second compound 0.1 µM, first compound 1 µM); 85.2% (second compound 0.1 µM, first compound 3.16 µM); 71.1% (second compound 0.1 µM, first compound 10 µM). Further, the viability, T/C is 56.9% under setting [9]; 94.3% under setting [10]; 72.3% (second compound 0.316 µM, first compound 0.316 µM); 72.1% (second compound 0.316 µM, first compound 1 µM); 75.8% (second compound 0.316 µM, first compound 3.16 µM); 54.4% (second compound 0.316 µM, first compound 10 µM). The viability, T/C reads like this: under setting [11], 53.1%; under setting [12], 89.8%; (second compound 1 µM, first compound 0.316 µM) 80.5%; (second compound 1 µM, first compound 1 µM) 71.5%; (second compound 1 µM, first compound 3.16 µM) 42.1%; (second compound 1 µM, first compound 10 µM) 49.5%. Further, the viability, T/C is, setting by setting: (second compound 3.16 µM, first compound 0.0316 µM) 66.7%; (second compound 3.16 µM, first compound 0.1 µM) 55.2%; (second compound 3.16 µM, first compound 0.316 µM) 50.1%; (second compound 3.16 µM, first compound 1 µM) 89.7%; (second compound 3.16 µM, first compound 3.16 µM) 42%; (second compound 3.16 µM, first compound 10 µM) 57.2%. Further, the viability, T/C (second compound 10 µM, first compound 0.0316 µM) is 55.8%; the viability, T/C (second compound 10 µM, first compound 0.1 µM) is 31.7%; the viability, T/C (second compound 10 µM, first compound 0.316 µM) is 47.2%; the viability, T/C (second compound 10 µM, first compound 1 µM) was 40.9%; the viability, T/C (second compound 10 µM, first compound 3.16 µM) is 59.4%; the viability, T/C (second compound 10 µM, first compound 10 µM) is 35%.

As for `CC1(C)CCC(CN2CCN(c3ccc(C(=O)NS(=O)(=O)c4ccc(NCC5CCOCC5)c([N+](=O)[O-])c4)c(Oc4cnc5[nH]ccc5c4)c3)CC2)=C(c2ccc(Cl)cc2)C1`, the viability, T/C is 66.2% and 63.1% and 99.8% (compound 0.0316 µM); 60.4% and 90.3% and 105% (compound 0.1 µM); 60.5% and 85.7% and 66.8% (compound 0.316 µM); 84.6% and 95.4% and 97.1% (compound 1 µM); 98.1% and 98.5% and 56.7% (compound 3.16 µM). The 50% inhibitory concentration (IC50) (curve of compound) was > 10000 nM and 5630 nM and 3670 nM.

With `COc1c(OCCCN2CCOCC2)ccc2c3n(c(=NC(=O)c4cnc(N)nc4)nc12)CCN3`, the viability, T/C (compound 0.01 µM) is 83.5% [middle of 6 runs]; the viability, T/C (compound 0.0316 µM) was 60.5% [middle of 6 runs]; the viability, T/C (compound 0.1 µM) was 39.5% [middle of 6 runs]; the viability, T/C (compound 0.316 µM) is 21.5% [middle of 6 runs]; the viability, T/C (compound 1 µM) was 10.1% [middle of 6 runs]. In addition, where the note is “compound alone, run of 04/25/2023”, the IC50 was 58.3 nM [middle of 6 runs].

With `CC(=O)c1c(C)c2cnc(Nc3ccc(N4CCNCC4)cn3)nc2n(C2CCCC2)c1=O` + CC(Nc1ccc2c(c1)OCCn1cc(N3C(=O)OCC3C(F)F)nc1-2)C(N)=O, the IC50 was determined as 69.7 nM (curve of first compound, second compound 0.00316 µM); 76.1 nM (curve of first compound, second compound 0.01 µM); 33.9 nM under setting [1]; 28.7 nM under setting [2]; 13.7 nM under setting [3]; 8.65 nM under setting [4]. Besides, the viability, T/C is 79.4% (second compound 0.00316 µM, first compound 0.000316 µM); 78.4% (second compound 0.00316 µM, first compound 0.001 µM); 74.4% (second compound 0.00316 µM, first compound 0.00316 µM); 73.2% (second compound 0.00316 µM, first compound 0.01 µM); 142% (second compound 0.00316 µM, first compound 0.0316 µM); 31.9% (second compound 0.00316 µM, first compound 0.1 µM). Also, the viability, T/C is 124% (second compound 0.01 µM, first compound 0.000316 µM); 74.5% (second compound 0.01 µM, first compound 0.001 µM); 107% (second compound 0.01 µM, first compound 0.00316 µM); 56.3% (second compound 0.01 µM, first compound 0.01 µM); 58.8% (second compound 0.01 µM, first compound 0.0316 µM); 48.4% (second compound 0.01 µM, first compound 0.1 µM). For the same molecule, the viability, T/C (second compound 0.0316 µM, first compound 0.000316 µM) is 73.5%; the viability, T/C (second compound 0.0316 µM, first compound 0.001 µM) was 80%; the viability, T/C (second compound 0.0316 µM, first compound 0.00316 µM) is 84.3%; the viability, T/C (second compound 0.0316 µM, first compound 0.01 µM) was 62.5%; the viability, T/C under setting [5] was 53.4%; the viability, T/C under setting [6] is 31.4%. For the same molecule, the viability, T/C runs as follows: (second compound 0.1 µM, first compound 0.000316 µM) 85.1%; (second compound 0.1 µM, first compound 0.001 µM) 86%; (second compound 0.1 µM, first compound 0.00316 µM) 60.1%; (second compound 0.1 µM, first compound 0.01 µM) 105%; under setting [7], 46.8%; under setting [8], 37%. The viability, T/C (second compound 0.316 µM, first compound 0.000316 µM) was 51.7%; the viability, T/C (second compound 0.316 µM, first compound 0.001 µM) was 52.2%; the viability, T/C (second compound 0.316 µM, first compound 0.00316 µM) is 69.7%; the viability, T/C (second compound 0.316 µM, first compound 0.01 µM) was 52.4%; the viability, T/C under setting [9] is 38.3%; the viability, T/C under setting [10] was 23.3%. Moreover, the viability, T/C is, setting by setting: (second compound 1 µM, first compound 0.000316 µM) 68.8%; (second compound 1 µM, first compound 0.001 µM) 68.7%; (second compound 1 µM, first compound 0.00316 µM) 53.5%; (second compound 1 µM, first compound 0.01 µM) 55.6%; under setting [11], 29.7%; under setting [12], 27.2%.

The values are drawn from PubChem BioAssay AID1963969 (Molecular Pharmacology Branch, DTP, NCI, 2024).
